Measured values from patent US11331299B2, “Medicinal use of serrulatane diterpenes” (The University of Sydney, priority 2016, dated 2022).

Columns and labels:
Assay in all cases: biochemical
enzymes (Bioprint panel) [1] = molecular target: enzymes (Bioprint panel) (Homo sapiens, UniProt Q13370); settings: PDE3B (h); 10 μM; read-out: % Inhibition of Control Values
enzymes (Bioprint panel) [2] = molecular target: enzymes (Bioprint panel) (Homo sapiens, UniProt P28482); settings: ERK2 (h) (P42mapk); 10 μM; read-out: % Inhibition of Control Values
enzymes (Bioprint panel) [3] = molecular target: T1, enzymes (Bioprint panel) (Homo sapiens, UniProt Q08499); settings: PDE4D2 (h); 10 μM; read-out: % Inhibition of Control Values
T1 construct: other: PDE4D2 (h); 10 μM; PDE4D2 (h)
T1 sequence (Q08499 303-809): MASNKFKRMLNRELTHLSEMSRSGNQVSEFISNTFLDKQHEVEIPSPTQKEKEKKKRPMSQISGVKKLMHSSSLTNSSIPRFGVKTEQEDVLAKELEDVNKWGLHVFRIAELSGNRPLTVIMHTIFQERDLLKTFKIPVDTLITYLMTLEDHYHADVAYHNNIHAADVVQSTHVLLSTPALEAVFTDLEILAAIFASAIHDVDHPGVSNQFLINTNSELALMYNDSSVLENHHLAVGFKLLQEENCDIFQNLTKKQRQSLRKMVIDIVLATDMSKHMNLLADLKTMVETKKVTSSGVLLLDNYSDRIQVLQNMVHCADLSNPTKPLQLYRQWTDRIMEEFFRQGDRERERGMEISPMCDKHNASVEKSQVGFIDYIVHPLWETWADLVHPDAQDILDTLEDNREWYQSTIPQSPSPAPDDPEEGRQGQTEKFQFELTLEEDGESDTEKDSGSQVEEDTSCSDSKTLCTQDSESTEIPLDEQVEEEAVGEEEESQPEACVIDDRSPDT

enzymes (Bioprint panel) [4] = molecular target: T2, enzymes (Bioprint panel) (UniProt A0ABM2YAB8); settings: MT3 (ML2) (agonist radioligand); 10 μM
T2 construct: other: MT3 (ML2) (agonist radioligand); 10 μM

enzymes (Bioprint panel) [5] = molecular target: T3, enzymes (Bioprint panel) (Homo sapiens, UniProt O00408); settings: PDE2A1 (h); 10 μM; read-out: % Inhibition of Control Values
T3 construct: other: PDE2A1 (h); 10 μM; PDE2A1 (h)

enzymes (Bioprint panel) [6] = molecular target: enzymes (Bioprint panel) (Homo sapiens, UniProt P56817); settings: BACE-1 (h) (beta -secretase); 10 μM; read-out: % Inhibition of Control Values
enzymes (Bioprint panel) [7] = molecular target: enzymes (Bioprint panel) (Homo sapiens, UniProt P07948); settings: Lyn A kinase (h); 10 μM; read-out: % Inhibition of Control Values
Chain of enzymes (Bioprint panel) (Homo sapiens, UniProt P07948) (P07948 whole entry): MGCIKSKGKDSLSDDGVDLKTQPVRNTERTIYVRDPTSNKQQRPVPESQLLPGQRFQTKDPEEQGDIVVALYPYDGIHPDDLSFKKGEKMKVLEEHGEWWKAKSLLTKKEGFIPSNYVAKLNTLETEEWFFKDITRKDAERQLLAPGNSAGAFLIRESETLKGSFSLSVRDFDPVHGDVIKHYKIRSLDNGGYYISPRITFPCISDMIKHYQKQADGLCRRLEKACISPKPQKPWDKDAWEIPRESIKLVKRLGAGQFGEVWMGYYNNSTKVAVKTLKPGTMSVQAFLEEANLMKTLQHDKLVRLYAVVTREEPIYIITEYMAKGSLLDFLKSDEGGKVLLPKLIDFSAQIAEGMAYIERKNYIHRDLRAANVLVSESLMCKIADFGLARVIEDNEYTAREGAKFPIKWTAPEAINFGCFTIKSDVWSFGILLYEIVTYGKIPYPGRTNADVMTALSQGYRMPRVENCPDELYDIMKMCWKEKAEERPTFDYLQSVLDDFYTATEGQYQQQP

enzymes (Bioprint panel) [8] = molecular target: enzymes (Bioprint panel) (Homo sapiens, UniProt Q16539); settings: p38alpha kinase (h); 10 μM; read-out: % Inhibition of Control Values
Chain of enzymes (Bioprint panel) (Homo sapiens, UniProt Q16539) (Q16539 whole entry): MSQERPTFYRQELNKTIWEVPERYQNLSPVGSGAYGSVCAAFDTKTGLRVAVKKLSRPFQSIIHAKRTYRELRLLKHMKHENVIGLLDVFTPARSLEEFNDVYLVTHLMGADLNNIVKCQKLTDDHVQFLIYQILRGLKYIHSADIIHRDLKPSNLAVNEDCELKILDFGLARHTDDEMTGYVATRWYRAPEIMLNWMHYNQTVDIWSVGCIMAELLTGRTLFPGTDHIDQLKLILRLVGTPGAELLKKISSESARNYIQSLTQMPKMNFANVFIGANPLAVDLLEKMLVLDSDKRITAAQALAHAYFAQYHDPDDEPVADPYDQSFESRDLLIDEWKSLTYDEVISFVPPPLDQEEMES

enzymes (Bioprint panel) [9] = molecular target: T4, enzymes (Bioprint panel) (Bos taurus, UniProt P11541+P23439); settings: PDE6 (non-selective); 10 μM; read-out: % Inhibition of Control Values
T4 construct: other: PDE6 (non-selective); 10 μM

enzymes (Bioprint panel) [10] = molecular target: enzymes (Bioprint panel) (Homo sapiens, UniProt P22303); settings: acetylcholinesterase (h); 10 μM; read-out: % Inhibition of Control Values
enzymes (Bioprint panel) [11] = molecular target: enzymes (Bioprint panel) (Mus musculus, UniProt P29477); settings: inducible NOS; 10 μM; read-out: % Inhibition of Control Values
Chain of enzymes (Bioprint panel) (Mus musculus, UniProt P29477) (P29477 whole entry): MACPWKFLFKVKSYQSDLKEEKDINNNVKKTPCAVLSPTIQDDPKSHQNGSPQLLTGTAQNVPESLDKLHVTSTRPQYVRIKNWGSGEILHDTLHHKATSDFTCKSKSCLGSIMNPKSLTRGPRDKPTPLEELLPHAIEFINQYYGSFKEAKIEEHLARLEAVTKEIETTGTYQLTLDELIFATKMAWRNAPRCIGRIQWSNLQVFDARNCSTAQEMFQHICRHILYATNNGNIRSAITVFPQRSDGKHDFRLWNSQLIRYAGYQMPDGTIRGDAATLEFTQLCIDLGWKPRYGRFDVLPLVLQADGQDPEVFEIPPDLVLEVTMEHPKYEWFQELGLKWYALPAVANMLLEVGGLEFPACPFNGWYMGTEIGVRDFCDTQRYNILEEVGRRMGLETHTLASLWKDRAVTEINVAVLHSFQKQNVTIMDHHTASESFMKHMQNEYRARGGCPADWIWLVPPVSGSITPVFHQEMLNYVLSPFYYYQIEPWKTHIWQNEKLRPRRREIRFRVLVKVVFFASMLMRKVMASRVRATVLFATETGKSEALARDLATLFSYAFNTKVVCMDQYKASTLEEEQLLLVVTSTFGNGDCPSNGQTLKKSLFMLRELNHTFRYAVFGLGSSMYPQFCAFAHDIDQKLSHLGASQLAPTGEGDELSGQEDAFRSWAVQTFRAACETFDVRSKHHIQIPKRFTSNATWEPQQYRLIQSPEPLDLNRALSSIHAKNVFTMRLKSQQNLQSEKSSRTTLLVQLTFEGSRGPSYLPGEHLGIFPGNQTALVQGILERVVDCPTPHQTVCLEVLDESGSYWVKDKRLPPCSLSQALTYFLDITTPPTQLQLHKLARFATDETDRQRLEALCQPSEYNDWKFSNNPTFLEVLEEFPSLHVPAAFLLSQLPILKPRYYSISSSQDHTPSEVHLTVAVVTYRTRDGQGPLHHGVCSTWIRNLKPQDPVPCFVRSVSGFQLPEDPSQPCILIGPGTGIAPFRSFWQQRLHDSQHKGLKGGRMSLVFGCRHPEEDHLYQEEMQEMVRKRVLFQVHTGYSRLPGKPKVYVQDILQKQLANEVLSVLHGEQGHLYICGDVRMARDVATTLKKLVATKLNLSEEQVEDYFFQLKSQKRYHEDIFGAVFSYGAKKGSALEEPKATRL

enzymes (Bioprint panel) [12] = settings: COMT (catechol- O-methyl transferase); 10 μM
enzymes (Bioprint panel) [13] = tested on: T5, enzymes (Bioprint panel); settings: ATPase (Na+/K+); 10 μM
T5 construct: other: ATPase (Na+/K+); 10 μM

enzymes (Bioprint panel) [14] = molecular target: enzymes (Bioprint panel) (Homo sapiens, UniProt P24941); settings: CDK2 (h) (cycA); 10 μM; read-out: % Inhibition of Control Values
enzymes (Bioprint panel) [15] = molecular target: enzymes (Bioprint panel) (Homo sapiens, UniProt P00519); settings: Abl kinase (h); 10 μM; read-out: % Inhibition of Control Values
enzymes (Bioprint panel) [16] = molecular target: enzymes (Bioprint panel) (Rattus norvegicus, UniProt P21396); settings: MAO-A (antagonist radioligand); 10 μM; read-out: % Inhibition of Control Values
enzymes (Bioprint panel) [17] = molecular target: T6, enzymes (Bioprint panel) (UniProt P04585); settings: HIV-1 protease; 10 μM
T6 construct: other: HIV-1 protease; 10 μM

enzymes (Bioprint panel) [18] = molecular target: enzymes (Bioprint panel) (Homo sapiens, UniProt P42574); settings: caspase-3 (h); 10 μM; read-out: % Inhibition of Control Values
enzymes (Bioprint panel) [19] = molecular target: enzymes (Bioprint panel) (Homo sapiens, UniProt P06213); settings: IRK (h) (InsR); 10 μM; read-out: % Inhibition of Control Values
enzymes (Bioprint panel) [20] = molecular target: enzymes (Bioprint panel) (Homo sapiens, UniProt P06241); settings: Fyn kinase (h); 10 μM; read-out: % Inhibition of Control Values
enzymes (Bioprint panel) [21] = molecular target: enzymes (Bioprint panel) (Homo sapiens, UniProt P14780); settings: MMP-9 (h); 10 μM; read-out: % Inhibition of Control Values
Chain of enzymes (Bioprint panel) (Homo sapiens, UniProt P14780) (P14780 94-707): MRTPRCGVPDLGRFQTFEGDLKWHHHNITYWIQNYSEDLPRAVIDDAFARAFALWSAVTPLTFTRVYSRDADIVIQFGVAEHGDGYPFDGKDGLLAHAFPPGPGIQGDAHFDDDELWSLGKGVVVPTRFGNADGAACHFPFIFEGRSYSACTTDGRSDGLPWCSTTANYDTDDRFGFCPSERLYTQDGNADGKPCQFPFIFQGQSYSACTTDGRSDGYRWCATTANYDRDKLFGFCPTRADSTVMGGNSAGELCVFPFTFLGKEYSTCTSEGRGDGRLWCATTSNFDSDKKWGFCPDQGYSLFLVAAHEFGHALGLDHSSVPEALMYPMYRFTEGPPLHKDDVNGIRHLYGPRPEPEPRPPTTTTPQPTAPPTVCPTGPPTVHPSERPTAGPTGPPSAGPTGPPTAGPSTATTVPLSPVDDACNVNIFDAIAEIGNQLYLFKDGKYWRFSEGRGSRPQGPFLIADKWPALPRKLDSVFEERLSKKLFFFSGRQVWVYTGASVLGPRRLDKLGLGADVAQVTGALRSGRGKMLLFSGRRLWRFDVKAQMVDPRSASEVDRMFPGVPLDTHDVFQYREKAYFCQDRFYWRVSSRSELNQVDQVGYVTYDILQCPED

enzymes (Bioprint panel) [22] = molecular target: enzymes (Bioprint panel) (Homo sapiens, UniProt P03956); settings: MMP-1 (h); 10 μM; read-out: % Inhibition of Control Values
enzymes (Bioprint panel) [23] = molecular target: enzymes (Bioprint panel) (Homo sapiens, UniProt Q9BYF1); settings: ACE-2 (h); 10 μM; read-out: % Inhibition of Control Values
Chain of enzymes (Bioprint panel) (Homo sapiens, UniProt Q9BYF1) (Q9BYF1 18-805): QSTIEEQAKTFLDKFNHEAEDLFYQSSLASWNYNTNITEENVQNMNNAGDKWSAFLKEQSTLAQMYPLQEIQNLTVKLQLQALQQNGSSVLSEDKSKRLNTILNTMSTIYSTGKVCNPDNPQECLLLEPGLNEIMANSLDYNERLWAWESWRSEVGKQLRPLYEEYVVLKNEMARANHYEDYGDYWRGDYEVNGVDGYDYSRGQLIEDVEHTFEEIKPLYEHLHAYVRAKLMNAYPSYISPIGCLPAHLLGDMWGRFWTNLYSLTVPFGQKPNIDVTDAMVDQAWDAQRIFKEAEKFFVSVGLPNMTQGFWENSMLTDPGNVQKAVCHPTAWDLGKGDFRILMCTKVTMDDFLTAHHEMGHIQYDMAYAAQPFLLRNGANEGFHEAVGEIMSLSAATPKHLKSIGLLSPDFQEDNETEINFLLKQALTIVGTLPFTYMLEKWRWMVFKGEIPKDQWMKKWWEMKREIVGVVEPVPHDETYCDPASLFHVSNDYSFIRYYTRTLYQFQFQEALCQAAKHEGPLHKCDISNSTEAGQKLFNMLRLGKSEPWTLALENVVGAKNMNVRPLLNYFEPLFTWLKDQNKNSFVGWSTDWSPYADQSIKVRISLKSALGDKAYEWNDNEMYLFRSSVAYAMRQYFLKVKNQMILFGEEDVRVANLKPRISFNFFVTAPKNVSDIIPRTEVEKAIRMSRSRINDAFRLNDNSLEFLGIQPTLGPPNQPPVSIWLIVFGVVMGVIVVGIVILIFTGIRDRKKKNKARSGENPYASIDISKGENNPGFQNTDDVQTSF

enzymes (Bioprint panel) [24] = molecular target: enzymes (Bioprint panel) (Bos taurus, UniProt P80457); settings: xanthine oxidase/superoxide O2- scavenging; 10 μM; read-out: % Inhibition of Control Values
enzymes (Bioprint panel) [25] = molecular target: enzymes (Bioprint panel) (Homo sapiens, UniProt Q9UQM7); settings: CaMK2alpha (h); 10 μM; read-out: % Inhibition of Control Values
enzymes (Bioprint panel) [26] = molecular target: enzymes (Bioprint panel) (Homo sapiens, UniProt O76074); settings: PDE5 (h) (non-selective); 10 μM; read-out: % Inhibition of Control Values
enzymes (Bioprint panel) [27] = molecular target: enzymes (Bioprint panel) (Homo sapiens, UniProt P17948); settings: FLT-1 kinase (h) (VEGFR1); 10 μM; read-out: % Inhibition of Control Values
enzymes (Bioprint panel) [28] = molecular target: enzymes (Bioprint panel) (Homo sapiens, UniProt P43403); settings: ZAP70 kinase (h); 10 μM; read-out: % Inhibition of Control Values

Chain of enzymes (Bioprint panel) (Homo sapiens, UniProt Q13370) (Q13370 whole entry): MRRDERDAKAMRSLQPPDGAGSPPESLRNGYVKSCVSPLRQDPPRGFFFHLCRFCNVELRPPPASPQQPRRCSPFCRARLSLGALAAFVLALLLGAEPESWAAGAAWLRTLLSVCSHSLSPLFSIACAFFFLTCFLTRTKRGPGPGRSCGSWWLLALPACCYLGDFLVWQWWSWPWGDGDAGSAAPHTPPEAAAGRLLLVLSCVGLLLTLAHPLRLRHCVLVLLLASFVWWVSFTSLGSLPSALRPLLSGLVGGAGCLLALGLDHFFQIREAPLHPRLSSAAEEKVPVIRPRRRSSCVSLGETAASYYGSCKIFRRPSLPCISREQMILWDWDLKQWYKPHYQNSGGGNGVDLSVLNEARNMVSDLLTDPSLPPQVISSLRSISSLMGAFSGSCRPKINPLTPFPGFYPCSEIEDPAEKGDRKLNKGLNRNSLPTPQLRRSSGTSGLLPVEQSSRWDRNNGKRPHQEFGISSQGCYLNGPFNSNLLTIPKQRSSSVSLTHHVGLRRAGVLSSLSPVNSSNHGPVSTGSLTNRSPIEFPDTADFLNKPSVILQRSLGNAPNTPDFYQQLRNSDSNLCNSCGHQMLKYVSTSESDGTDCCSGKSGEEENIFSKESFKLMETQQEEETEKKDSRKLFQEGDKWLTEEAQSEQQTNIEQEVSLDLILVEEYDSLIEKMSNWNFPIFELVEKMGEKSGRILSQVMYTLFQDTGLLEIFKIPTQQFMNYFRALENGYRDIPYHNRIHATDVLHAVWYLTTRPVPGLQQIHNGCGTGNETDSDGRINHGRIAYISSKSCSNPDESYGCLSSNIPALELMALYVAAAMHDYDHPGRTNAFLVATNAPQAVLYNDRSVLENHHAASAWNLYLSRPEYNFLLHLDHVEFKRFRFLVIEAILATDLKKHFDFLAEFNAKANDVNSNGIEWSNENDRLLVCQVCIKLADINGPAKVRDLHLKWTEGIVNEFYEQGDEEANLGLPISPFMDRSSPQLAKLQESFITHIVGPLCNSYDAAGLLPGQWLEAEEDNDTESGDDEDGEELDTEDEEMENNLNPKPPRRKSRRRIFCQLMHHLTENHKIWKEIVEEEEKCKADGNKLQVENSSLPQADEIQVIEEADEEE

CC(C)=CCC[C@H](CO)[C@@H]1CC[C@@H](C)c2c1cc(C)c(O)c2O [Compound 1, 7,8,18-trihydroxyserrulat-14-ene]
inhibition at 10 µM (enzymes (Bioprint panel) [1]): -3% | inhibition at 10 µM (enzymes (Bioprint panel) [2]): 6% | inhibition at 10 µM (enzymes (Bioprint panel) [3]): 55% | % Inhibition of Control Values (enzymes (Bioprint panel) [4]): 31% | inhibition at 10 µM (enzymes (Bioprint panel) [5]): 43% | inhibition at 10 µM (enzymes (Bioprint panel) [6]): 0% | inhibition at 10 µM (enzymes (Bioprint panel) [7]): 9% | inhibition at 10 µM (enzymes (Bioprint panel) [8]): 4% | inhibition at 10 µM (enzymes (Bioprint panel) [9]): 4% | inhibition at 10 µM (enzymes (Bioprint panel) [10]): 32% | inhibition at 10 µM (enzymes (Bioprint panel) [11]): -1% | % Inhibition of Control Values (enzymes (Bioprint panel) [12]): −6% | % Inhibition of Control Values (enzymes (Bioprint panel) [13]): 22% | inhibition at 10 µM (enzymes (Bioprint panel) [14]): 12% | inhibition at 10 µM (enzymes (Bioprint panel) [15]): 14% | inhibition at 10 µM (enzymes (Bioprint panel) [16]): 15% | % Inhibition of Control Values (enzymes (Bioprint panel) [17]): 9% | inhibition at 10 µM (enzymes (Bioprint panel) [18]): -3% | inhibition at 10 µM (enzymes (Bioprint panel) [19]): -15% | inhibition at 10 µM (enzymes (Bioprint panel) [20]): 6% | inhibition at 10 µM (enzymes (Bioprint panel) [21]): 1% | inhibition at 10 µM (enzymes (Bioprint panel) [22]): -2% | inhibition at 10 µM (enzymes (Bioprint panel) [23]): -3% | inhibition at 10 µM (enzymes (Bioprint panel) [24]): -140% | inhibition at 10 µM (enzymes (Bioprint panel) [25]): 2% | inhibition at 10 µM (enzymes (Bioprint panel) [26]): 11% | inhibition at 10 µM (enzymes (Bioprint panel) [27]): 36% | inhibition at 10 µM (enzymes (Bioprint panel) [28]): 33%
